According to US20070082858A1, “Methods and compositions for the prevention of toxic side effects of aminoglycoside medications” (priority 2004, published 2007):

Experiments:
[1] = test system: cochlear hair cells; experiment: In vivo GTTR uptake in mouse cochlea after sub-cutaneous injection; parameters: species or system mice
Protocol: (§1) Gentamicin sulfate was conjugated to Texas Red (Molecular Probes) using published methods (1) to produce a 300:1 molar dilution of gentamicin-Texas Red conjugate (GTTR). Mice were injected sub-cutaneously with a single 300 mg/kg dose of GTTR. Frogs were injected directly into the lymph sac (there is no sub-cutaneous space in frogs, lymph sacs drain directly into the blood). Control animals received an equivalent dose of hydrolyzed Texas Red succinimidyl esters only.
At specific time-points (0.5, 1, 2, 3, 6, 7.5, 9 and 24 hours) following injection, animals were anesthetized and inner ear organs were excised and fixed in 4% formaldehyde overnight. After washing in PBS, frog and murine organs were permeabilized using ice-cold acetone, and all organs were labeled with Alexa-488-conjugated, or FITC-conjugated phalloidin to localize filamentous actin. […]
For data analysis of murine samples, area intensity measurements of optically-sectioned hair cells (approximately 1-2 microns below the cuticular plate) were obtained from apical and basal cochlear regions (25 hair cells per row in each region). The mean basal intensity was divided by the mean apical intensity of an equivalent number of hair cells to derive a ratio that indicates the relative degree of fluorescence in basal hair cells compared to apical hair cells. […]

[2] = test system: bullfrog saccular hair cells; experiment: In vivo GTTR uptake in bullfrog saccule after lymph sac injection
Protocol: as §1
At specific time-points (0.5, 1, 2, 3, 6, 7.5, 9 and 24 hours) following injection, animals were anesthetized and inner ear organs were excised and fixed in 4% formaldehyde overnight. After washing in PBS, frog and murine organs were permeabilized using ice-cold acetone, and all organs were labeled with Alexa-488-conjugated, or FITC-conjugated phalloidin to localize filamentous actin. Mouse and frog inner ear epithelia were whole-mounted and observed using a Bio-Rad MRC 1024 ES laser scanning confocal system attached to a Nikon Eclipse TE300 inverted microscope. Alexa-488 and Texas Red images were collected sequentially using 1024×1024 pixel box size using a 4× (n.a. 0.25) and a 60× lens (n.a. 1.4) with an xy resolution=230 nm and xz resolution=440 nm. All control organs were imaged at the same laser intensity and gain settings as treated organs.

[3] = test system: MDCK cells; experiment: GTTR uptake into MDCK cells under TRPV1 agonists/antagonists, cation channel blockers, cations and pH (30-60 seconds, 20° C., FATX fixation, confocal imaging); conditions: 75 μg/ml PIP2 added to 1 μg/ml GTTR in PBS, 1 minute
From the text: MDCK cells were used as a model system to test regulation of GTTR uptake by conditions known to produce or modify a cation current through the TRPV1 channel. Conditions tested were varying extracellular calcium concentrations, pH, specific agonists, specific antagonists, and the non-specific cation channel blocker Ruthenium Red. In addition, we pre-mixed PIP2 with GTTR to determine whether that anionic phospholipid, known to bind gentamicin, would alter GTTR uptake. All these assays were done at room temperature (20° C.), for 30 or 60 seconds, and using doses of GTTR of 5 to 10 μg/ml, which are far below the typical therapeutic level of <300 μg/ml. Buffers used for treatment were as described for each experiment. Cells were quickly washed to replace culture medium with treatment buffer, treated as indicated, washed again after treatment, fixed immediately with 4% formaldehyde and 0.5% Triton X-100 (FATX), and washed prior to imaging.
Methods: Cells were seeded into 8-well coverglass chambers at 3000 cells/well and grown for 5 days.
Cells were washed three times with the buffer to be used in the particular experiment, treated with GTTR and experimental variable for 30 or 60 seconds at 20° C., precluding endocytosis. Following treatment, cells were rinsed three times with buffer, then fixed and delipidated with 4% formaldehyde plus 0.5% Triton X-100 (FATX) for 45 minutes. Following fixation, cells were rinsed with PBS (Invitrogen, CA) for at least 4-6 times, or until foaming in the suction pipette ceased. In contrast to previous experiments, no FBS was present in the treatment media, allowing for more rapid uptake of the antibiotic-based GTTR.
MDCK cells were washed with Hank's buffered salt solution (HBSS; Invitrogen, CA), then placed into buffers of varying potassium concentrations. HBSS was mixed with equi-osmolar KCl/HBSS to produce the required K^+ concentrations. Cells were treated with 1 μg/mL GTTR for 1 minute, then washed and fixed as described above.
Cells were washed with PBS (Invitrogen, CA), then placed into buffers containing varying concentrations of calcium, obtained by mixing HBSS with equimolar CaCl2, each at pH 7.3. Cells were treated with 5 μg/mL of GTTR for 30 seconds, then washed and fixed as above.
Cells were washed with saline, then treated with 5 μg/mL of GTTR in saline buffers of varying pH for 30 seconds, then washed and fixed as above. Sodium hydroxide and hydrochloric acid were used to alter pH. These experiments were performed in three different saline buffers: (i) PBS (no calcium), (ii) a mixture of […] for a final calcium concentration of 0.32 mM, and (iii) a mixture of three parts PBS to one part HBSS for a final calcium concentration of 0.97 mM.
Cells were washed three times with Ca^++-free saline (0.9% NaCl), then treated with 5 μg/mL GTTR and one of the following for 30 seconds: TRPV1 agonists (resiniferatoxin [RTX]; or anandamide [AND]; Alexis Biochemicals, San Diego, Calif.); or antagonists (iodo-RTX, or SB 366791; Tocris, Ellisville, Mo.). Cells were then washed in saline and fixed as above.
Cells were washed three times with Ca^++-free 0.9% NaCl, then treated with 5 μg/mL GTTR and one of the following for 30 seconds: 100 μM Ruthenium Red, 100 μM Ruthenium Red plus one of the TRPV1 agonists or antagonists described above; or lanthanum (La^+++) at 0.5 or 5 mM.

[4] = PIP2 quenching of GTTR and TR fluorescence (fixed cells and 3-d scanning fluorescence spectroscopy); conditions: 1 mg/ml PIP2 for 1.5 hour, imaged in PIP2 solution; recovered after delipidation
Protocol: PIP2: Monolayer MDCK cells were grown in coverglass chambers as described above. After fixation, delipidation, washing and imaging (FIG. 27B), cells were treated with 1 mg/mL phosphatidylinositol-4,5-bisphosphate (PIP2, Echelon Biosciences, Salt Lake City, Utah) for 1.5 hours and re-imaged (FIG. 27E), prior to a second delipidation with 0.5% Triton, washing and imaging again (FIG. 27F).
Spectrophotometry: 3-d scanning fluorescence spectroscopy of solutions containing TR or GTTR with or without (PIP2) were performed using a Safire fluorescence microplate reader (Tecan, Research Triangle Park, N.C.). GTTR (100 μg/mL; weight as gentamicin in molecule) and PIP2 (155 μg/mL; approximately equimolar) were mixed vigorously in PBS solution and allowed to stand at room temperature for ½ hour prior to scanning. This was compared to the same concentration of GTTR alone in solution. Similar hydrolyzed Texas Red solutions (at the same concentration as the Texas Red moiety in GTTR solutions), with or without PIP2, were used as controls. Excitation and emission spectra were obtained over an excitation range of 570-604 nm (bandwidth 5 nm) and an emission range of 610-650 nm (bandwidth 5 nm).

Row | Molecule | fluorescence in inner ear epithelia [1] | fluorescence in inner ear epithelia [2] | GTTR uptake [3] | GTTR fluorescence in FATX-fixed MDCK cells [4]
1 | O=S(=O)([O-])c1cc(S(=O)(=O)O)ccc1C1=c2cc3c4c(c2Oc2c1cc1c5c2CCCN5CCC1)CCC[N+]=4CCC3 [hydrolyzed TR, Texas Red] | negligible fluorescence in their inner ear epithelia at all time points | negligible fluorescence in their inner ear epithelia at all time points | – | –
2 | phosphatidylinositol-4,5-bisphosphate [PIP2] | – | – | large reduction in GTTR uptake | clearly quenched the GTTR fluorescence
